Experimental data reported in patent US7384920B2, “Use of stilbene compounds in the manufacture of medicament for the prevention and treatment of diabetes or retrovirus-associated diseases” (priority 2001, dated 2008).
Several values for one entry are separate records, joined by “and”; a condition that tells them apart may be missing. Equal values may be shown once.

How the values were obtained:
[1] = system: HBeAg expression; test: Inhibition of HBeAg expression in 2.2.15 cells (ELISA of supernatant); format: cell-based; details: 2.2.15 cells 10^5/ml
Experimental: Experimental method: use 10% DMEM(with G418 380 μg/ml)to cultivate 2.2.15 cells,
Add 1.5ml of 10^5 cell/ml to 24 well plate for cultivation, change the new cultivate fluid next day and add different amount of compound to it, cultivate each concentration of compound to 3 wells, then collect and freeze 200 μl of supernatant of 2.2.15 cell culture at day 2,4,6 cultivation. Measure HBeAg value of the supernatant by ELISA.
E3 are the same, OD optical density, IR inhibition rate, ctr control IR=[Ctr(P/N)−Agent(P/N)]/[Ctr(P/N)−2.1]

[2] = system: alloxan induced diabetic mice; test: Hypoglycemic effect on glucose level of alloxan induced diabetic mice; format: in vivo; details: for Postdosing glucose level / Predosing glucose level: alloxan diabetic KM male mice; for Predosing glucose level: before dosing
Experimental: The metformin or miglucan were used as positive control drugs. And the hypoglycemic effects were evaluated. Hypoglycemic effect of stilbene derivatives on glucose level of alloxan induced diabetic mice.
KM strain male mice which have been fasted for 5-8 hours are used and be injected intravenously of alloxan 80mg/Kg, and 72 hours later, selected those with glucose level>11.0 mmol/L as the diabetic model mice for drug evaluation. Compounds were administered pos for 12 days.

[3] = system: mice; test: in vivo; format: in vivo
[4] = in vivo; format: in vivo; details: mouse, in vivo, pos
[5] = system: normal rats; test: Effect on glucose tolerance curve of normal rats; format: in vivo; design: Auc (area under glucose tolerance curve): unit not given beside the values; details: for Glucose (fasted): fasted 8 hours; for Glucose after medication 0′: 0 h after ip glucose 2 g/Kg; for Glucose after medication 30′: 30 min after ip glucose 2 g/Kg; for Glucose after medication 60′: 60 min after ip glucose 2 g/Kg; for Glucose after medication 120′: 120 min after ip glucose 2 g/Kg; for Auc (area under glucose tolerance curve): ip glucose 2 g/Kg, 0-2 hours
Experimental: In these experiments, stilbene derivatives in examples 1-5 are administrated respectively to KM male mice or Wistar male rats pos for 12 days , then test animals were fasted for 8 hours, examined glucose values, and administrated the test compound. One hour later, administered ip of glucose 2 g/Kg (1.11 mol/L glucose solution). Determining the glucose values at 0, ½, 1, 2 hours after glucose injection and calculating the area under this glucose tolerance curve.

[6] = Solubility in organic solvents (identification); format: physicochemical; details: organic solvents as named in the value
[7] = normal rats N=6, 75 mg/Kg pos 12 days
[8] = normal rats N=6, 150 mg/Kg pos 12 days

## 3,3′,4′,5-quadrahydroxystilbene-4′-O-β-D-glucopyranoside [Compound E1]
[1]; 10 μg/ml, Day 2
  IR (%) inhibition rate of HBeAg: 57.75%
  OD (HBeAg ELISA): 0.244
[1]; 10 μg/ml, Day 4
  IR (%) inhibition rate of HBeAg: 32.68%
  OD (HBeAg ELISA): 0.208
[1]; 10 μg/ml, Day 6
  IR (%) inhibition rate of HBeAg: 51.57%
  OD (HBeAg ELISA): 0.228
[1]; 20 μg/ml, Day 2
  IR (%) inhibition rate of HBeAg: 63.83%
  OD (HBeAg ELISA): 0.224
[1]; 20 μg/ml, Day 4
  IR (%) inhibition rate of HBeAg: −62.75%
  OD (HBeAg ELISA): 0.354
[1]; 20 μg/ml, Day 6
  IR (%) inhibition rate of HBeAg: 48.82%
  OD (HBeAg ELISA): 0.235
[2]; 250 mg/kg pos for 12 days
  Postdosing glucose level: 21.10 ± 5.73 mmol/L
[2]; 500 mg/kg pos for 12 days
  Postdosing glucose level: 16.39 ± 5.32 mmol/L
[2]; 1000 mg/kg pos for 12 days
  Postdosing glucose level: 16.54 ± 5.48 mmol/L
[2]; group 250 mg/kg
  Predosing glucose level: 22.49 ± 4.63 mmol/L
[2]; group 500 mg/kg
  Predosing glucose level: 22.76 ± 3.17 mmol/L
[2]; group 1000 mg/kg
  Predosing glucose level: 22.65 ± 3.55 mmol/L

## COc1cc(C=Cc2cc(O)cc(O[C@@H]3O[C@H](CO)[C@@H](O)[C@H](O)[C@H]3O)c2)ccc1O [Compound E2, 3,4′,5-trihydroxy-3′-methyloxy stilbene-3-O-β-D glucoside]
[1]; 10 μg/ml, Day 2
  IR (%) inhibition rate of HBeAg: 71.43%
  OD (HBeAg ELISA): 0.199
[1]; 10 μg/ml, Day 4
  IR (%) inhibition rate of HBeAg: 45.75%
  OD (HBeAg ELISA): 0.188
[1]; 10 μg/ml, Day 6
  IR (%) inhibition rate of HBeAg: 56.69%
  OD (HBeAg ELISA): 0.251
[1]; 20 μg/ml, Day 2
  IR (%) inhibition rate of HBeAg: 40.43%
  OD (HBeAg ELISA): 0.301
[1]; 20 μg/ml, Day 4
  IR (%) inhibition rate of HBeAg: 9.15%
  OD (HBeAg ELISA): 0.244
[1]; 20 μg/ml, Day 6
  IR (%) inhibition rate of HBeAg: 4.72%
  OD (HBeAg ELISA): 0.347
[2]; 250 mg/kg pos for 12 days
  Postdosing glucose level: 22.61 ± 6.07 mmol/L
[2]; 500 mg/kg pos for 12 days
  Postdosing glucose level: 28.96 ± 8.21 mmol/L
[2]; 1000 mg/kg pos for 12 days
  Postdosing glucose level: 24.64 ± 2.49 mmol/L
[2]; group 250 mg/kg
  Predosing glucose level: 21.43 ± 5.04 mmol/L
[2]; group 500 mg/kg
  Predosing glucose level: 22.98 ± 5.94 mmol/L
[2]; group 1000 mg/kg
  Predosing glucose level: 21.38 ± 5.75 mmol/L
[3]; mice ♀, pos
  MTD: >16872 mg/kg
[3]; mice ♂, pos
  MTD: >18301 mg/kg
[3]; mice, pos, summary of Table 3
  Toxicity (in words): very low

## Oc1ccc(/C=C/c2cc(O)cc(O)c2)cc1 [Compound E]
[2]; 75 mg/kg pos for 12 days
  Postdosing glucose level: 20.01 ± 7.1 mmol/L
[2]; 150 mg/kg pos for 12 days
  Postdosing glucose level: 18.36 ± 6.25 mmol/L
[2]; group 75 mg/kg
  Predosing glucose level: 17.27 ± 4.60 mmol/L
[2]; group 150 mg/kg
  Predosing glucose level: 17.87 ± 4.86 mmol/L
[3]; mouse, in vivo
  Toxicity (in words): very low
[4]; female, mice ♀
  MTD: > 6100 mg/kg
[4]; male, mice ♂
  MTD: > 6000 mg/kg
[5]; [7]
  Glucose (fasted): 5.3 ± 0.9 mmol/L
[5]; normal rats N=6, 75 mg/Kg
  Glucose after medication 0′: 4.9 ± 0.7 mmol/L
  Glucose after medication 30′: 12.1 ± 2.3 mmol/L
  Glucose after medication 60′: 7.5 ± 0.8 mmol/L
  Glucose after medication 120′: 6.2 ± 0.9 mmol/L
  Auc (area under glucose tolerance curve): 961.1 ± 115.9
[5]; [8]
  Glucose (fasted): 5.8 ± 0.6 mmol/L
[5]; normal rats N=6, 150 mg/Kg
  Glucose after medication 0′: 4.2 ± 0.4 mmol/L
  Glucose after medication 30′: 9.5 ± 2.1 mmol/L
  Glucose after medication 60′: 6.1 ± 1.2 mmol/L
  Glucose after medication 120′: 4.7 ± 0.7 mmol/L
  Auc (area under glucose tolerance curve): 760.2 ± 119.6
[6]
  Solubility (in words): easily soluble in methyl alcohol, ethyl alcohol and acetone

## OC[C@H]1OC(Oc2cc(O)cc(C=Cc3ccc(O)cc3)c2)[C@H](O)[C@@H](O)[C@@H]1O (some centres unmarked) [Compound E5]
[2]; 75 mg/kg pos for 12 days
  Postdosing glucose level: 21.79 ± 9.39 mmol/L
[2]; 150 mg/kg pos for 12 days
  Postdosing glucose level: 21.05 ± 4.63 mmol/L
[2]; group 75 mg/kg
  Predosing glucose level: 17.46 ± 5.86 mmol/L
[2]; group 150 mg/kg
  Predosing glucose level: 17.92 ± 5.35 mmol/L
[3]; mouse, in vivo
  MTD: >10000 mg/kg
  Toxicity (in words): very low
[5]; [7]
  Glucose (fasted): 4.6 ± 0.5 mmol/L
[5]; normal rats N=6, 75 mg/Kg
  Glucose after medication 0′: 4.9 ± 0.7 mmol/L
  Glucose after medication 30′: 12.0 ± 1.5 mmol/L
  Glucose after medication 60′: 7.4 ± 0.8 mmol/L
  Glucose after medication 120′: 6.7 ± 0.7 mmol/L
  Auc (area under glucose tolerance curve): 966.8 ± 71.6
[5]; [8]
  Glucose (fasted): 4.7 ± 0.8 mmol/L
[5]; normal rats N=6, 150 mg/Kg
  Glucose after medication 0′: 4.3 ± 0.9 mmol/L
  Glucose after medication 30′: 10.2 ± 1.5 mmol/L
  Glucose after medication 60′: 6.3 ± 1.1 mmol/L
  Glucose after medication 120′: 5.7 ± 1.1 mmol/L
  Auc (area under glucose tolerance curve): 836.3 ± 112.1
[6]
  Solubility (in words): easily soluble in acetone

## COc1ccc(Cl)cc1C(=O)NCCc1ccc(S(=O)(=O)NC(=O)NC2CCCCC2)cc1 [Miglucan, reference compound]
[5]; normal rats N=6, 100 mg/Kg
  Glucose after medication 0′: 2.7 ± 0.8 mmol/L and 3.4 ± 0.4 mmol/L
  Glucose after medication 30′: 11.5 ± 0.6 mmol/L and 8.7 ± 3.5 mmol/L
  Glucose after medication 60′: 7.8 ± 6.2 mmol/L and 5.3 ± 2.1 mmol/L
  Glucose after medication 120′: 4.1 ± 1.7 mmol/L and 3.8 ± 1.4 mmol/L
  Auc (area under glucose tolerance curve): 883.1 ± 43.5 and 663.8 ± 220.2

## COc1ccc(C=Cc2cc(O)cc(O[C@@H]3O[C@H](CO)[C@@H](O)[C@H](O)[C@H]3O)c2)cc1 [Compound E3, 3,5-dihydroxy-4′-methyloxy stilbene-3-O-β-O-D glucoside]
[1]; 10 μg/ml, Day 2
  IR (%) inhibition rate of HBeAg: 72.95%
  OD (HBeAg ELISA): 0.194
[1]; 10 μg/ml, Day 4
  IR (%) inhibition rate of HBeAg: 39.87%
  OD (HBeAg ELISA): 0.197
[1]; 10 μg/ml, Day 6
  IR (%) inhibition rate of HBeAg: 71.65%
  OD (HBeAg ELISA): 0.177
[1]; 20 μg/ml, Day 2
  IR (%) inhibition rate of HBeAg: 51.37%
  OD (HBeAg ELISA): 0.265
[1]; 20 μg/ml, Day 4
  IR (%) inhibition rate of HBeAg: 1.31%
  OD (HBeAg ELISA): 0.256
[1]; 20 μg/ml, Day 6
  IR (%) inhibition rate of HBeAg: 48.43%
  OD (HBeAg ELISA): 0.236
[3]; mice ♀, pos
  MTD: >11200 mg/kg
[3]; mice ♂, pos
  MTD: >11000 mg/kg
[3]; mice, pos, summary of Table 3
  Toxicity (in words): very low

## CN(C)C(=N)N=C(N)N [Metformin, reference compound]
[2]; 500 mg/kg pos for 12 days, 500 mg/kg
  Postdosing glucose level: 17.49 ± 5.33 mmol/L and 17.64 ± 1.00 mmol/L and 15.16 ± 8.53 mmol/L
[2]; group 500 mg/kg
  Predosing glucose level: 22.81 ± 4.89 mmol/L and 21.15 ± 3.85 mmol/L and 17.10 ± 4.84 mmol/L
[2]; alloxan induced diabetic mice, summary of Table 1
  Hypoglycemic effect (in words): effective
